In patent publication US5162328A, “N-[3-[2-(1H-imidazol-1-yl)ethoxy]phenyl]-4-(2-thienyl)-2-pyrimidinamine and pharmacologically acceptable salts” (American Cyanamid Company, priority 1991, dated 1992):

Test system: immunologically stimulated human basophils
Assay: Inhibition of histamine release from immunologically stimulated human basophils
Type: cell-based
Conditions: for IC50: Homo sapiens
Source text: The bronchospasm of allergic asthma is a consequence of the release of mediators, such as histamine and slow-reacting substances from mast cells. The role of mediator release in the induction of an asthmatic attack has been fully reviewed and documented; see […]. and Austen, K. F., Bronchial Asthma Mechanisms and Therapeutics, E. B. Weiss, Editor, Little, Brown and Company, Boston, 163, (1976); Lichtenstein, L. M., Asthma-Physiology, Immunopharmacology and Treatment, Second International Symposium, L. M. Lichtenstein and K. F. Austen, Editors, Academic Press, New York, 51, (1979); and Bell, S. C., et al., Annular Reports in Medicinal Chemistry, 14, 51, H. J. Hess, Editor, Academic Press, New York, (1979). The novel compounds of this invention have been tested by the procedure of Lichtenstein, L. M. and Osler, A. G., J. Exp. […] Dissolve 140.3 g of sodium chloride, 7.45 g of Trizma-Tris Pre-Set, Reagent Grade, pH 7.6 at 25° C. (Sigma Chemical Co.) in sufficient water to give a final volume of 2 liters. (Sigma chemical Co.) (30 mg/ml) Made to 0.075M and 0.5M respectively, with calcium chloride dihydrate and magnesium chloride hexahydrate. A 10 ml portion of 10× Tris Buffer and 1.0 ml of human albumin are diluted to 100 ml with water. A 10 ml portion of 10× Tris Buffer, 1.0 ml of human albumin, 0.8 ml of calcium stock and 0.2 ml of magnesium stock are diluted to 100 ml with water. Behring Diagnostics (Generally used at 10 μg protein/ml final concentration). Strength 1:100 (w:v) allergenic extract, Hollister-Stier Labs. Generally this is diluted 1:1000 to 1:10,000 (considering the vial as stock). Interdermal solutions or intramuscular preparations for hyposensitization, Hollister-Stier Labs. The final concentrations used are on the order of 1 PNU/ml. Using four 20 ml heparinized tubes, […] of blood are withdrawn from subjects with known histamine release to anti-IgE, ragweed antigen or other specific allergen. These 80 ml of blood are mixed with 20 ml of saline containing 0.6 g of dextrose and 1.2 g of dextran. The blood is allowed to sediment at room temperature in two 50 ml polycarbonate centrifuge tubes until a sharp interface develops between the red cells and plasma (60-90 minutes). The plasma, containing the leukocytes, (top) layer from each tube, is withdrawn by pipet and transferred to 50 ml polycarbonate tubes. The plasma is centrifuged for 8 minutes at 110× G at 4° C. The supernatant is carefully poured off as completely as possible and the cell button is resuspended in 2-3 ml of Tris-A buffer using a siliconized Pasteur pipet. The resuspension is accomplished by drawing the liquid gently in an out of the pipet, with the tip below the liquid until an even suspension of cells is obtained. […]

IC50 | Structure (SMILES) | activity in basophil histamine release assay (in words) (compared with the two compounds of U.S. Pat. No. 4,788,195)
900 nM | Cc1cc(Nc2nccc(-c3ccncc3)n2)ccc1N.Cl.Cl [Compound 2, 2-methyl-N^4-[4-(4-pyridinyl)-2-pyrimidinyl]-1,4-benzenediamine dihydrochloride, reference compound] | 
200 ± 20 nM | CCN(CC)CCOc1ccc(Nc2nccc(-c3ccncc3)n2)cc1.Cl.Cl [Compound 3, N-[4-[2-(diethylamino)ethoxy]phenyl]-4-(4-pyridinyl)-2-pyrimidinamine dihydrochloride, reference compound] | 
 | c1cc(Nc2nccc(-c3cccs3)n2)cc(OCCn2ccnc2)c1 [N-[3-[2-(1H-imidazol-1-yl)ethoxy]phenyl]-4-(2-thienyl)-2-pyrimidinamine] | essentially equivalent high activity
